Measurements taken from patent US11000510B2, “Methods of using anti-CD79b immunoconjugates” (Genentech, Inc., priority 2014, dated 2021).

How the values were obtained:
[1] = system: activated B-cell-like (ABC) subtype; conditions: Br J Haematol 2013 Zhang et al.; cited from earlier work
non-ABC-DLBCL cells = conditions: Br J Haematol 2013 Zhang et al.; cited from earlier work
TMD8 (ABC-DLBCL) = assay: Combination efficacy in tumor xenograft model of TMD8 (Example 5); conditions: ADC 2 mg/kg iv once; GA101 1 mg/kg ip qwx3; lenalidomide 20 mg/kg po (qdx5)x3
Protocol: When the xenograft tumors reached desired volume, animals were randomized and received treatments (Day 0 of the study). There were seven treatment groups (1) vehicle, (2) GA101, (3) anti-CD79b-MC-vc-PAB-MMAE, (4) lenalidomide, (5) GA101+anti-CD79b-MC-vc-PAB-MMAE, (6) GA101+lenalidomide, and (7) GA101+lenalidomide+anti-CD79b-MC-vc-PAB-MMAE. CD79b-MC-vc-PAB-MMAE ADC was dosed once intravenously at 2 mg/kg, iv, once. GA101 dosed 1 mg/kg, ip, qwx3. Lenalidomide was administered at 20 mg/kg, po, (qdx5)×3.
As described above, tumors were measured 1-2 times a week throughout the study using UltraCal-IV calipers and tumor volume was calculated using following formula: tumor volume (mm^3)=0.5a×b^2, wherein a and b are the long and short diameters of the tumor, respectively.

[2] = system: Granta-519 human mantle-cell lymphoma; assay: Combination efficacy in tumor xenograft model of Granta-519 (Example 3); type: in vivo; conditions: ADC 1 mg/kg iv once; ABT-199 100 mg/kg orally once a day for 21 days
Excerpt: To appropriately analyze the repeated measurement of tumor volumes from the same animals over time, a mixed modeling approach was used (Pinheiro J, et al. nlme: linear and nonlinear mixed effects models. 2009; R package, version 3.1-96). This approach addresses both repeated measurements and modest dropout rates due to non-treatment related removal of animals before the study end. Cubic regression splines were used to fit a non-linear profile to the time courses of log2 tumor volume at each dose level. These non-linear profiles were then related to dose within the mixed model. The results were plotted as fitted tumor volume of each group over time.

WSU-DLCL2 (DLBCL) = assay: Combination efficacy in tumor xenograft model of WSU-DLCL2 (Example 6); type: in vivo, C.B-17 SCID mice; conditions: ADC 2 mg/kg iv once; GA101 30 mg/kg ip once; GDC-199 100 mg/kg po qdx21; GDC-032 10 mg/kg po qdx21; rituximab 30 mg/kg ip once
Protocol: GA101 dosed 30 mg/kg, ip, once. Bcl2 inhibitor, GDC-199, was dosed at 100 mg/kg, po, qdx21. PI3K inhibitor, GDC-032 was dosed at 10 mg/kg, po, qdx21.

| Compound | growth suppression of ABC subtype [1] | effect on non-ABC-DLBCL cells (non-ABC-DLBCL cells) | anti-tumor efficacy (tumor volume, FIG. 3B) (TMD8 (ABC-DLBCL)) | anti-tumor activity (fitted tumor volume over time, FIG. 2) [2] | effect on tumor growth (tumor volume, FIG. 4) (WSU-DLCL2 (DLBCL)) |
| --- | --- | --- | --- | --- | --- |
| Nc1cccc2c1CN(C1CCC(=O)NC1=O)C2=O (racemic) [lenalidomide, (RS)-3-(4-Amino-1-oxo 1,3-dihydro-2H-isoindol-2-yl)piperidine-2,6-dione] | preferentially suppresses the growth | minimal effect | little efficacy | – | – |
| CC1(C)CCC(CN2CCN(c3ccc(C(=O)NS(=O)(=O)c4ccc(NCC5CCOCC5)c([N+](=O)[O-])c4)c(Oc4cnc5[nH]ccc5c4)c3)CC2)=C(c2ccc(Cl)cc2)C1 [ABT-199, 4-(4-{[2-(4-chlorophenyl)-4,4-dimethylcyclohex-1-en-1-yl]methyl}piperazin-1-yl)-N-({3-nitro-4-[(tetrahydro-2H-pyran-4-ylmethyl)amino]phenyl}sulfonyl)-2-(1H-pyrrolo[2,3-b]pyridin-5-yloxy)benzamide] | – | – | – | did not result in anti-tumor activity | little effect on the tumor growth |
| Cc1nc(-c2cn3c(n2)-c2ccc(-c4cnn(C(C)(C)C(N)=O)c4)cc2OCC3)n(C(C)C)n1 [GDC-0032] | – | – | – | – | little effect on the tumor growth |
| GA101: anti-CD20 antibody; obinutuzumab is synonymous for GA101 or RO5072759; humanized B-Ly1 type II antibody | – | – | – | – | little effect on the tumor growth |
